By IC50 is commonly meant the concentration that inhibits the measured activity by half. Lower therefore signals greater potency.

For this assay, the target named is GAR transformylase (Sus scrofa). Description: In vitro inhibition of hog liver GAR transformylase with (6R)-10-formyl-FH4 as cofactor.
In turn, `Cc1cc(C(=O)NC(CCC(=O)O)C(=O)O)ccc1NCCCc1c(N)nc(N)[nH]c1=O` (centres undefined) yielded a concentration for half-maximal inhibition (IC50) of 6.1 µM. Then `Nc1nc(N)c(CCCCNc2ccc(C(=O)NC(CCC(=O)O)C(=O)O)cc2)c(=O)[nH]1` (centres undefined), with 18.2 µM. Then `Nc1nc(N)c(CCCNc2ccc(C(=O)NC(CCC(=O)O)C(=O)O)c(F)c2)c(=O)[nH]1` (centres undefined), with 3.1 µM.

`Nc1nc(N)c(CCCSc2ccc(C(=O)NC(CCC(=O)O)C(=O)O)cc2)c(=O)[nH]1` (centres undefined) returned an IC50 of 2.6 µM. As to `Nc1nc(N)c(CCCNc2ccc(C(=O)NC(CCC(=O)O)C(=O)O)cc2F)c(=O)[nH]1` (centres undefined), the IC50 came to 3.5 µM. This IC50 and that of the compound before are within 1.5-fold of each other. Then `Nc1nc(N)c(CCCNc2ccc(C(=O)NC(CCC(=O)O)C(=O)O)c(Cl)c2)c(=O)[nH]1` (centres undefined), with 6.6 µM; and `Nc1nc(N)c(CCCOc2ccc(C(=O)NC(CCC(=O)O)C(=O)O)cc2)c(=O)[nH]1` (centres undefined), with 5.3 µM. To `Nc1nnc(C2CCN(c3ccc(C(=O)NC(CCC(=O)O)C(=O)O)cc3)C2=O)c(=O)[nH]1` (centres undefined) belongs over 100 µM; to `Nc1nc[nH]c(=O)c1CCCNc1ccc(C(=O)NC(CCC(=O)O)C(=O)O)cc1` (centres undefined), 52 µM.

Values taken from BindingDB's records for doi:10.1021/jm00086a008 (Wellcome Research Laboratories, 1992).
